Laboratory results taken from patent US20250325529A1, “INHIBITORS OF FATTY ACID BINDING PROTEINS (FABPs), METHODS OF USE AND METHODS OF MAKING” (Celloram, inc., priority 2024, published 2025).

Assays:
[1] = Single dose IV and PO PK study in C57BL/6 mice; format: in vivo; conditions: mouse, plasma; male C57BL/6 mice, single oral dose 10 mg/kg
Description: C57BL/6 male mice or Han Wistar rats were used, n=3 for each administration route and compound. Single dose of each compound was administered orally (PO, 10 mg/Kg) or by intravenous administration (IV, 1 mg/Kg). Following intravenous and oral administration, blood samples (ca 0.2 mL) were collected and compound amount was measured by HLPC. For IV group, blood samples were collected at 0.083, 0.25, 0.5, 1, 2, 4, 6, 8, and 24 hours post-dose. For PO group, blood samples were collected at 0.25, 0.5, 1, 2, 4, 6, 8, and 24 hours post-dose.

[2] = tested on: Salmonella typhimurium tester strains TA98, TA100, TA1535, TA1537 and Escherichia coli tester strain WP2 uvrA (pKM101); experiment: Ames test, overall conclusion for the tested strains; format: cell-based; conditions: presence and absence of S9
Description: (§1) PD152 (compound 2) was tested for genotoxic and cytotoxic side effects by Ames test. The Ames test is a Bacterial Reverse Mutation Test of mutagenicity that utilizes Salmonella typhimurium tester strains TA98, TA100, TA1535, TA1537 and Escherichia coli tester strain WP2 uvrA (pKM101), both in the presence and absence of S9.
(§2) The compound PD152 was tested at 10 concentrations (0.032-1000 μg/plate) in the presence of, or absence of, the hepatic enzyme S9.
(§3) The aniline FABP4/5 inhibitor compound, 2-((2-((2,4-dichloro-5-isopropoxyphenyl)amino)-2-oxoethyl)thio)-2-methylpropanoic acid (compound “B104” as disclosed in WO2023043803A1) also was tested for genotoxic and cytotoxic side effects by Ames test. B104 was tested using the Salmonella typhimurium tester stains TA98, TA100, TA1535, and TA1537, both in the presence and absence of the hepatic enzyme S9, at 5 concentrations (1.5-64 μg/plate).

[3] = tested on: Salmonella typhimurium tester strain TA100; experiment: Ames test (Bacterial Reverse Mutation Test), TA100; format: cell-based
Description: as §1, §2, §3

[4] = tested on: Salmonella typhimurium tester strain TA1535; experiment: Ames test (Bacterial Reverse Mutation Test), TA1535; format: cell-based
Description: as §1, §2, §3

[5] = tested on: Salmonella typhimurium tester strain TA1537; experiment: Ames test (Bacterial Reverse Mutation Test), TA1537; format: cell-based
Description: as §1, §2
(§4) The aniline FABP4/5 inhibitor compound, 2-((2-((2,4-dichloro-5-isopropoxyphenyl)amino)-2-oxoethyl)thio)-2-methylpropanoic acid (compound “B104” as disclosed in WO2023043803A1) also was tested for genotoxic and cytotoxic side effects by Ames test. […]

[6] = tested on: Salmonella typhimurium tester strain TA98; experiment: Ames test (Bacterial Reverse Mutation Test), TA98; format: cell-based
Description: as §1, §2, §4

[7] = biological target: PPARγ (Homo sapiens (Human), UniProt P37231); experiment: Transcriptional activation assay in COS7 cells, PPARγ; format: cell-based; conditions: PPRE luciferase reporter, PD151 and PD152 at 10 μM
Description: (§5) COS-7 were cultured in 6-well plates and co-transfected with either a luciferase reporter driven by 3 copies of a PPRE and expression vector for either PPARδ, PPARα or PPARγ together with a vector harboring cDNA for β-galactosidase, serving as a transfection control. To test whether FABP4 or FABP5 mediate activation of their cognate receptors PPARγ and PPARδ, respectively, cells were also co-transfected with a plasmid harboring sequence of either FABP4 or FABP5. 18 h post-transfection, cells were placed in a serum-free medium and treated with agonist/compound. 18 h. later, cells were lysed, luciferase activity was assayed (Promega, WI, USA) and corrected for transfection efficiency by the activity of β-galactosidase.
(§6) Transcriptional activation assays were carried out utilizing COS7 cells as described above.

[8] = biological target: FABP3 (Homo sapiens (Human), UniProt P05413); experiment: Fluorescence (ANS) competition binding assay, FABP3; conditions: ANS displacement
Description: (§7) This example illustrates a two-step fluorescence binding assay study used to determine the binding affinity of the various inhibitor compounds disclosed herein with the various FABPs: FABP3, FABP4, FABP5 and FABP7. Further secondary screening studies were carried out for compounds with high binding affinities toward the FABPs and based on their ability to activate the nuclear receptors PPARα, PPARγ, or PPARδ.
(§8) Binding assays for FABP3, FABP4, FABP5 and FABP7 were carried out by fluorescence titrations. His-tagged FABPs were bacterially expressed in E. coli, purified using Ni Sepharose beads, and the equilibrium dissociation constants (Kd) that characterize their interactions with different inhibitor compounds were measured by fluorescence competition assays. The method entails two steps as described in e.g., Lin, Q. et al., “Ligand selectivity of the peroxisome proliferator-activated receptor alpha,” Biochemistry 38, 185-190, doi:10.1021/bi9816094 [pii](1999). In the first step, Kd for the association of the protein with the fluorescent fatty acid probe ANS was measured. Protein (2 μM) was titrated with ANS from a concentrated solution in DMSO. Ligand binding was monitored by following the increase in the fluorescence of the ligand upon binding to the protein, and Kd for the association of ANS with the each FABP was computed from titration curves as described in e.g., Norris, A. W. & Li, E., “Fluorometric titration of the CRABPs,” Methods Mol Biol 89, 123-139 (1998)). In the second step, Kds for binding of non-fluorescent ligands were measured by monitoring their ability to displace ANS in the binding pocket of the protein. Each FABP was precomplexed with ANS at 1:1 molar ratio and titrated with the different compounds whose binding was reflected by a decrease in probe fluorescence. Kds were extracted from the EC50 of the competition curve and the measured Kd for ANS.

[9] = biological target: FABP4 (Homo sapiens (Human), UniProt P15090); experiment: Fluorescence (ANS) competition binding assay, FABP4; conditions: ANS displacement
Description: as §7, §8

[10] = biological target: FABP5 (Homo sapiens (Human), UniProt Q01469); experiment: Fluorescence (ANS) competition binding assay, FABP5; conditions: ANS displacement
Description: as §7, §8

[11] = biological target: FABP7 (Homo sapiens (Human), UniProt O15540); experiment: Fluorescence (ANS) competition binding assay, FABP7; conditions: ANS displacement
Description: as §7, §8

[12] = biological target: PPARδ (Homo sapiens (Human), UniProt Q03181); experiment: Transcriptional activation assay in COS7 cells, PPARδ; format: cell-based; conditions: PPRE luciferase reporter, PD151 and PD152 at 10 μM
Description: as §5, §6

[13] = biological target: PPARα (Homo sapiens (Human), UniProt Q07869); experiment: Transcriptional activation assay in COS7 cells, PPARα; format: cell-based; conditions: PPRE luciferase reporter, PD151 and PD152 at 10 μM
Description: as §5, §6

[14] = TA100, absence of S9, 1.5 μg/well
[15] = TA100, absence of S9, 4 μg/well
[16] = TA100, absence of S9, 10 μg/well
[17] = TA100, absence of S9, 25 μg/well
[18] = TA100, absence of S9, 64 μg/well
[19] = TA100, presence of S9, 1.5 μg/well
[20] = TA100, presence of S9, 4 μg/well
[21] = TA100, presence of S9, 10 μg/well
[22] = TA100, presence of S9, 25 μg/well
[23] = TA100, presence of S9, 64 μg/well
[24] = TA1535, absence of S9, 1.5 μg/well
[25] = TA1535, absence of S9, 4 μg/well
[26] = TA1535, absence of S9, 10 μg/well
[27] = TA1535, absence of S9, 25 μg/well
[28] = TA1535, absence of S9, 64 μg/well
[29] = TA1535, presence of S9, 1.5 μg/well
[30] = TA1535, presence of S9, 4 μg/well
[31] = TA1535, presence of S9, 10 μg/well
[32] = TA1535, presence of S9, 25 μg/well
[33] = TA1535, presence of S9, 64 μg/well
[34] = TA1537, absence of S9, 1.5 μg/well
[35] = TA1537, absence of S9, 4 μg/well
[36] = TA1537, absence of S9, 10 μg/well
[37] = TA1537, absence of S9, 25 μg/well
[38] = TA1537, absence of S9, 64 μg/well
[39] = TA1537, presence of S9, 1.5 μg/well
[40] = TA1537, presence of S9, 4 μg/well
[41] = TA1537, presence of S9, 10 μg/well
[42] = TA1537, presence of S9, 25 μg/well
[43] = TA1537, presence of S9, 64 μg/well
[44] = TA98, absence of S9, 1.5 μg/well
[45] = TA98, absence of S9, 10 μg/well
[46] = TA98, absence of S9, 25 μg/well
[47] = TA98, absence of S9, 64 μg/well
[48] = TA98, presence of S9, 1.5 μg/well
[49] = TA98, presence of S9, 4 μg/well
[50] = TA98, presence of S9, 10 μg/well
[51] = TA98, presence of S9, 25 μg/well
[52] = TA98, presence of S9, 64 μg/well

Chain of FABP7 (O15540 whole entry, species assumed): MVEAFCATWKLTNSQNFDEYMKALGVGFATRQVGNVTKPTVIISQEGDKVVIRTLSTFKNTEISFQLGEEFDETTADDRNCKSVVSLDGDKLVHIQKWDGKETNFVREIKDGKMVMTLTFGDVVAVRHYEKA
Chain of PPARδ (Q03181 whole entry, species assumed): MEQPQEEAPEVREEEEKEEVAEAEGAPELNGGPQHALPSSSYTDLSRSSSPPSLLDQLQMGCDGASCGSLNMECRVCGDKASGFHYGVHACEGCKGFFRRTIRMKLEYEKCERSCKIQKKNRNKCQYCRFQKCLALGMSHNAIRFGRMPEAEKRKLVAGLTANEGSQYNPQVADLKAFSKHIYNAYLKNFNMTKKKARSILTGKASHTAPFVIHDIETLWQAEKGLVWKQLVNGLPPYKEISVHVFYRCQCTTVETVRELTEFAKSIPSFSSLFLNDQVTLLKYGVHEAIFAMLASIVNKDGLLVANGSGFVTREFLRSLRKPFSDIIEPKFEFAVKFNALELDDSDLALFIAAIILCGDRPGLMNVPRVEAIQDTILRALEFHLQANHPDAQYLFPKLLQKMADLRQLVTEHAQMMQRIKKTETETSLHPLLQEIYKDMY
Chain of PPARγ (P37231 whole entry, species assumed): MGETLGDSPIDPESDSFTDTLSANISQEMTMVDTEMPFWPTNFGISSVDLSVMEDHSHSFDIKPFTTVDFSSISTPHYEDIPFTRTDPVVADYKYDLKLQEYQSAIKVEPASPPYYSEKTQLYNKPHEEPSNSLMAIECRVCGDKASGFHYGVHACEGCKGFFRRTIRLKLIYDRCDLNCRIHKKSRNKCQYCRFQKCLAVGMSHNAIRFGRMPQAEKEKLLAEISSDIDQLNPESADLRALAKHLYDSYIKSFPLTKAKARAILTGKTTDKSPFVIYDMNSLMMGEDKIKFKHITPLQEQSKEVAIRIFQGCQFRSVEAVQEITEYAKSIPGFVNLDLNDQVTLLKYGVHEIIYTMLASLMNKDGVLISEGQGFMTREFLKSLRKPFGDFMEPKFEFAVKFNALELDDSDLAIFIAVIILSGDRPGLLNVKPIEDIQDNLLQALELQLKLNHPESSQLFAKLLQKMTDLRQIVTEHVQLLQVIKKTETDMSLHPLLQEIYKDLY
Chain of FABP4 (P15090 whole entry, species assumed): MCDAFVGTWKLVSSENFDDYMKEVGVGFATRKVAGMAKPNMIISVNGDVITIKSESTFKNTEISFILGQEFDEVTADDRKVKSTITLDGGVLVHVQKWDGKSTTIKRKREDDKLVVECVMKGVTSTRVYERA
Chain of PPARα (Q07869 whole entry, species assumed): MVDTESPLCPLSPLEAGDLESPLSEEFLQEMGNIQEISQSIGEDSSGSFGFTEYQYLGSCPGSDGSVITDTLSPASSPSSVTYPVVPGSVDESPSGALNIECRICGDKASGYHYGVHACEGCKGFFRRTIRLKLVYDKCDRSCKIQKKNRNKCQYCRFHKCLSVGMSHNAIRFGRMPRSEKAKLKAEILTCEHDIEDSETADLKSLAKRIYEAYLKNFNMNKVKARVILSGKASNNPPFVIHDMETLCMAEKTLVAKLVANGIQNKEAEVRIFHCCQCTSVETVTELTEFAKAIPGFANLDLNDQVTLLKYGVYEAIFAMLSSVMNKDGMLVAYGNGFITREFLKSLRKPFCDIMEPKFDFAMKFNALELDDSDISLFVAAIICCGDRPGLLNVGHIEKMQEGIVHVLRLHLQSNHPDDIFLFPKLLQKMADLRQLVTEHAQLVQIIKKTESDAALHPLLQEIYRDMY
Chain of FABP5 (Q01469 whole entry, species assumed): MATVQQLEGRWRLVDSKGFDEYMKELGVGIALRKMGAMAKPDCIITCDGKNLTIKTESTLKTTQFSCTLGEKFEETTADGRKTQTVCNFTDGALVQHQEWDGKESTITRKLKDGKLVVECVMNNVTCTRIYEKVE
Chain of FABP3 (P05413 whole entry, species assumed): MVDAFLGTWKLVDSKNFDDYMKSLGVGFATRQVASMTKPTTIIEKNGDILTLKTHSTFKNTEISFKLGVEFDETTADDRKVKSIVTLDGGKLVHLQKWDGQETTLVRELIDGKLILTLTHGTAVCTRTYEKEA

SMILES: CC(C)Oc1cc(NC(=O)CSCC(=O)O)c(Cl)cc1Cl [Compound B4, 2-((2-((2,4-dichloro-5-isopropoxyphenyl)amino)-2-oxoethyl)thio)acetic acid, reference compound]
- bioavailability [1]: 47%

SMILES: CC(C)Oc1cc(NC(=O)CSC(C)(C)C(=O)O)c(Cl)cc1Cl [Compound B104, 2-((2-((2,4-dichloro-5-isopropoxyphenyl)amino)-2-oxoethyl)thio)-2-methylpropanoic acid, reference compound]
- Cytotoxicity to the tested strains [2]: some level of cytotoxicity
- Mutagenicity in the Ames test [2]: positive mutagenic responses
- Fold increase [3, 14]: 0.8
- Mean number of revertants [3, 14]: 52
- Fold increase [3, 15]: 1.05
- Mean number of revertants [3, 15]: 68
- Fold increase [3, 16]: 0.86
- Mean number of revertants [3, 16]: 56
- Fold increase [3, 17]: 0
- Mean number of revertants [3, 17]: 0
- Fold increase [3, 18]: 0
- Mean number of revertants [3, 18]: 0.67
- Fold increase [3, 19]: 3
- Mean number of revertants [3, 19]: 387
- Fold increase [3, 20]: 5.18
- Mean number of revertants [3, 20]: 658
- Fold increase [3, 21]: 6.68
- Mean number of revertants [3, 21]: 849
- Fold increase [3, 22]: 6.55
- Mean number of revertants [3, 22]: 833
- Fold increase [3, 23]: 4.44
- Mean number of revertants [3, 23]: 564.5
- Fold increase [4, 24]: 1.20
- Mean number of revertants [4, 24]: 4
- Fold increase [4, 25]: 2.20
- Mean number of revertants [4, 25]: 7.33
- Fold increase [4, 26]: 1.40
- Mean number of revertants [4, 26]: 4.67
- Fold increase [4, 27]: 0.20
- Mean number of revertants [4, 27]: 0.67
- Fold increase [4, 28]: 0
- Mean number of revertants [4, 28]: 0
- Fold increase [4, 29]: 0.89
- Mean number of revertants [4, 29]: 5.67
- Fold increase [4, 30]: 1
- Mean number of revertants [4, 30]: 6.33
- Fold increase [4, 31]: 1.06
- Mean number of revertants [4, 31]: 6.67
- Fold increase [4, 32]: 1.68
- Mean number of revertants [4, 32]: 10.67
- Fold increase [4, 33]: 1
- Mean number of revertants [4, 33]: 6.33
- Fold increase [5, 34]: 0.43
- Mean number of revertants [5, 34]: 2.0
- Fold increase [5, 35]: 0.32
- Mean number of revertants [5, 35]: 1.5
- Fold increase [5, 36]: 0.21
- Mean number of revertants [5, 36]: 1.0
- Fold increase [5, 37]: 0
- Mean number of revertants [5, 37]: 0
- Fold increase [5, 38]: 0
- Mean number of revertants [5, 38]: 0
- Fold increase [5, 39]: 1.71
- Mean number of revertants [5, 39]: 4.0
- Fold increase [5, 40]: 2.36
- Mean number of revertants [5, 40]: 5.5
- Fold increase [5, 41]: 1.29
- Mean number of revertants [5, 41]: 3.0
- Fold increase [5, 42]: 1.07
- Mean number of revertants [5, 42]: 2.5
- Fold increase [5, 43]: 2.14
- Mean number of revertants [5, 43]: 5.0
- Fold increase [6, 44]: 1.26
- Mean number of revertants [6, 44]: 16
- Fold increase ([6]; TA98, absence of S9, 4 μg/well): 0.84
- Mean number of revertants ([6]; TA98, absence of S9, 4 μg/well): 10.67
- Fold increase [6, 45]: 0.97
- Mean number of revertants [6, 45]: 12.33
- Fold increase [6, 46]: 0
- Mean number of revertants [6, 46]: 0.33
- Fold increase [6, 47]: 0
- Mean number of revertants [6, 47]: 0.66
- Fold increase [6, 48]: 1.2
- Mean number of revertants [6, 48]: 20.67
- Fold increase [6, 49]: 2.3
- Mean number of revertants [6, 49]: 39
- Fold increase [6, 50]: 2.88
- Mean number of revertants [6, 50]: 49
- Fold increase [6, 51]: 2.7
- Mean number of revertants [6, 51]: 47.67
- Fold increase [6, 52]: 1.5
- Mean number of revertants [6, 52]: 26

SMILES: CC(C)Oc1ccc(Cl)c(NC(=O)CSCC(=O)O)n1 [PD152.2, 2-((2-((3-chloro-6-isopropoxypyridin-2-yl)amino)-2-oxoethyl)thio)acetic acid]
- Activation of transcription by PPARγ [7]: None of these tested compounds activated
- Kd [8]: 0.125 µM
- Kd [9]: 0.072 µM
- Kd [10]: 0.141 µM
- Kd [11]: 1 µM
- Activation of transcription by PPARδ [12]: None of these tested compounds activated
- Activation of transcription by PPARα [13]: None of these tested compounds activated
